Experimental data from patent US20100317624A1 (ASTRAZENECA AB, priority 2009, published 2010).
Where a name gives a salt, the structure may show the parent alone.

What follows are molecules tested against S. aureus GyrB ATPase (Staphylococcus aureus, UniProt P0A0K8) (assay: S. aureus GyrB ATPase inhibition (ammonium molybdate/malachite green phosphate detection)). Details: compound at 1 μM; inhibition of S. aureus GyrB ATPase; read-out: Percent Inhibition (1 μM).
Chain of S. aureus GyrB ATPase (P0AES4 whole entry): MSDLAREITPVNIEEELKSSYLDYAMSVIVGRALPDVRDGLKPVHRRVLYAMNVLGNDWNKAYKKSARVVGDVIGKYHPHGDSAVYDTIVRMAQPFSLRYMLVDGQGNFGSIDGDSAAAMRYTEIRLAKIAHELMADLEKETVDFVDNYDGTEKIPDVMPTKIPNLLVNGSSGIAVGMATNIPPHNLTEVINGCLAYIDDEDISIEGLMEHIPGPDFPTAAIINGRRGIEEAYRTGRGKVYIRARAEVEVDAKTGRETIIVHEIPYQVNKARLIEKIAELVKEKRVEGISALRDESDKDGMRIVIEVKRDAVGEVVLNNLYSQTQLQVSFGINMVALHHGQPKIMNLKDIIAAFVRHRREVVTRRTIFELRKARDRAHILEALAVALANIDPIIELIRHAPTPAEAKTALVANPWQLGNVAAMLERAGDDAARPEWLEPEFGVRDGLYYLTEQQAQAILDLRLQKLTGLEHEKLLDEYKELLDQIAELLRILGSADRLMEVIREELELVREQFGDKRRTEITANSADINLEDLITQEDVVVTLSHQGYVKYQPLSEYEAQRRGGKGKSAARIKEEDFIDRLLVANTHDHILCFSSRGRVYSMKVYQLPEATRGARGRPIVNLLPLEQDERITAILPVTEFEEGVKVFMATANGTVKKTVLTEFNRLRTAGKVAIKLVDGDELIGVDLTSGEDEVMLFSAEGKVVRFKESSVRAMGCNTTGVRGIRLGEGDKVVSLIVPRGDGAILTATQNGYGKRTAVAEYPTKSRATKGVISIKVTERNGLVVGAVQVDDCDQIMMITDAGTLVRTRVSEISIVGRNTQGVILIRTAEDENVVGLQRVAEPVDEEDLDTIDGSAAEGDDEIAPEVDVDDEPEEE
Chain of S. aureus GyrB ATPase (P0A0K8 whole entry): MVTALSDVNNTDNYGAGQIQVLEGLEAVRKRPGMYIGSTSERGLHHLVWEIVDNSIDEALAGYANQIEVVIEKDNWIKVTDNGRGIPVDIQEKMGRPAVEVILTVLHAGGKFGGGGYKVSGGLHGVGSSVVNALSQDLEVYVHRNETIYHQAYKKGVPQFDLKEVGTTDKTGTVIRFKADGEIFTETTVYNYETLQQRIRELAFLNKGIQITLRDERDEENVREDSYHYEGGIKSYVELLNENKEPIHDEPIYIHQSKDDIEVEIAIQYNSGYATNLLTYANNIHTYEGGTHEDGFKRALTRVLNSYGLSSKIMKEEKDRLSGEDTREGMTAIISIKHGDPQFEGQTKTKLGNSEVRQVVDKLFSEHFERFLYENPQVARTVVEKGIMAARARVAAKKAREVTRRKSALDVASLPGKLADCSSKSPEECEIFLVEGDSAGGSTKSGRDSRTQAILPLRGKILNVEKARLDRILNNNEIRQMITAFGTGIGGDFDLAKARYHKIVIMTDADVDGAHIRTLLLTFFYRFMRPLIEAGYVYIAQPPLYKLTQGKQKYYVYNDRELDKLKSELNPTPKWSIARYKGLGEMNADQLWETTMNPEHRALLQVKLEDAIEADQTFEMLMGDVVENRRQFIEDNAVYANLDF
Type: biochemical
Experimental: S. aureus GyrB ATPase Inhibition Activity: Compounds may be tested for inhibition of S. aureus GyrB ATPase activity using an ammonium molybdate/malachite green-based phosphate detection assay (Lanzetta, P. A., L. J. Alvarez, P. S. Reinach, and O. A. Candia, 1979, 100: 95-97). Assays can be performed in multiwell plates in 30 μl reactions containing: 50 mM Hepes buffer pH 7.5, 75 mM ammonium acetate, 8.0 mM magnesium chloride, 0.5 mM ethylenediaminetetraacetic acid, 5% glycerol, 1.0 mM 1,4-Dithio-DL-threitol, 200 nM bovine serum albumin, 1.0 μg/ml sheared salmon sperm DNA, 250 pM E. coli GyrA, 250 pM S. aureus GyrB, 250 μM ATP, and compound in dimethylsulfoxide. Reactions can be quenched with 30 μl of ammonium molybdate/malachite green detection reagent containing 1.2 mM malachite green hydrochloride, 8.5 mM ammonium molybdate tetrahydrate, and 1 M hydrochloric acid. Plates can be read in an absorbance plate reader at 650 nm and percent inhibition values can be calculated using dimethylsulfoxide (2%)-containing reactions as 0% inhibition and EDTA-containing ([…]) reactions as 100% inhibition controls. An IC50 measurement of compound potency for each compound can be determined from reactions performed in the presence of 10 different compound concentrations.
`CCNC(=O)Nc1cc(-c2nc(C(F)(F)F)cs2)c(-c2ccc3c(c2)c(=O)c(C(=O)N(C)C)cn3CCN2CCN(C)CC2)cn1` [Example 30, 6-{6-[(Ethylcarbamoyl)amino]-4-[4-(trifluoromethyl)-1,3-thiazol-2-yl]pyridin-3-yl}-N,N-dimethyl-1-[2-(4-methylpiperazin-1-yl)ethyl]-4-oxo-1,4-dihydroquinoline-3-carboxamide] gave an inhibition at 1 µM of 98%.
Work on `CCNC(=O)Nc1cc(-c2nc([C@H](N)C(C)C)cs2)c(-c2ccc3c(c2)c(=O)c(C(=O)O)cn3[C@H](CO)C(C)(C)C)cn1` [Example 53, 6-(4-(4-((R)-1-amino-2-methylpropyl)thiazol-2-yl)-6-(3-ethylureido)pyridin-3-yl)-1-((S)-1-hydroxy-3,3-dimethylbutan-2-yl)-4-oxo-1,4-dihydroquinoline-3-carboxylic acid] yielded an inhibition at 1 µM of 46%.
Molecule `CCNC(=O)Nc1cc(-c2nc(C(F)(F)F)cs2)c(-c2ccc3c(c2)c(=O)c(C(=O)OCOC(C)=O)cn3C(COC)COC)cn1` [Example 38, Acetoxymethyl 1-(1,3-dimethoxypropan-2-yl)-6-(6-(3-ethylureido)-4-(4-(trifluoromethyl)thiazol-2-yl)pyridin-3-yl)-4-oxo-1,4-dihydroquinoline-3-carboxylate] has an inhibition at 1 µM of 105%.
Work on `CCNC(=O)Nc1cc(-c2nc(C(F)(F)F)cs2)c(-c2ccc3c(c2)c(=O)c(C(=O)OCCOC(=O)CC)cn3C(COC)COC)cn1` [Example 42, 2-(propionyloxy)ethyl 1-(1,3-dimethoxypropan-2-yl)-6-(6-(3-ethylureido)-4-(4-(trifluoromethyl)thiazol-2-yl)pyridin-3-yl)-4-oxo-1,4-dihydroquinoline-3-carboxylate] yielded an inhibition at 1 µM of 104%.
`CCNC(=O)Nc1cc(-c2nc(C(F)(F)F)cs2)c(-c2ccc3c(c2)c(=O)c(C(=O)NCCCOP(=O)(O)O)cn3C2CC2)cn1` [Example 11, 3-(1-cyclopropyl-6-(6-(3-ethylureido)-4-(4-(trifluoromethyl)thiazol-2-yl)pyridin-3-yl)-4-oxo-1,4-dihydroquinoline-3-carboxamido)propyl dihydrogen phosphate hydrochloride] gave an inhibition at 1 µM of 108%.
Work on `CCNC(=O)Nc1cc(-c2nc(C(F)(F)F)cs2)c(-c2ccc3c(c2)c(=O)c(C(=O)NCCCOP(=O)(O)O)cn3C(COC)COC)cn1` [Example 10, 3-(1-(1,3-dimethoxypropan-2-y1)-6-(6-(3-ethylureido)-4-(4-(trifluoromethyl)thiazol-2-yl)pyridin-3-yl)-4-oxo-1,4-dihydroquinoline-3-carboxamido)propyl dihydrogen phosphate hydrochloride] yielded an inhibition at 1 µM of 12%.
`CCNC(=O)Nc1cc(-c2nc(C(F)(F)F)cs2)c(-c2ccc3c(c2)c(=O)c(C(=O)N(C)C)cn3C[C@@H]2CCCNC2)cn1` [Example 32, 6-{6-[(Ethylcarbamoyl)amino]-4-[4-(trifluoromethyl)-1,3-thiazol-2-yl]pyridin-3-yl}-N,N-dimethyl-4-oxo-1-[(3R)-piperidin-3-ylmethyl]-1,4-dihydroquinoline-3-carboxamide] showed an inhibition at 1 µM of 104%.
`CCNC(=O)Nc1cc(-c2nc(C(F)(F)F)cs2)c(-c2ccc3c(=O)c(C(=O)NCCCOP(=O)(O)O)cn(Cc4noc(C)n4)c3c2)cn1` [Example 13, 3-{[(7-{6[(ethylcarbamoyl)amino]-4-[4-(trifluoromethyl)-1,3-thiazol-2-yl]pyridin-3-yl}-1-[(5-methyl-1,2,4-oxadiazol-3-yl)methyl]-4-oxo-1,4-dihydroquinolin-3-yl)carbonyl]amino}propyl dihydrogen phosphate] gave an inhibition at 1 µM of 99%.
Work on `CCNC(=O)Nc1cc(-c2nc(C(F)(F)F)cs2)c(-c2cc3c(=O)c(C(=O)O)cn(CCN(C)C)c3cc2NCCN(C)C)cn1` [Example 55, 1-(2-(dimethylamino)ethyl)-7-(2-(dimethylamino)ethylamino)-6-(6-(3-ethylureido)-4-(4-(trifluoromethyl)thiazol-2-yl)pyridin-3-yl)-4-oxo-1,4-dihydroquinoline-3-carboxylic acid] yielded an inhibition at 1 µM of 100%.
In the case of `CCNC(=O)Nc1cc(-c2nc(C(F)(F)F)cs2)c(-c2ccc3c(=O)c(C(=O)NCCCOP(=O)(O)O)cn(CC4CC4)c3c2)cn1` [Example 15, phosphate hydrochloride], the inhibition at 1 µM is reported as 76%.
Molecule `CCNC(=O)Nc1cc(-c2nc(C(F)(F)F)cs2)c(-c2ccc3c(c2)c(=O)c(C(=O)OCc2oc(=O)oc2C)cn3C(COC)COC)cn1` [Example 40, (5-methyl-2-oxo-1,3-dioxo1-4-yl)methyl 1-(1,3-dimethoxypropan-2-yl)-6-(6-(3-ethylureido)-4-(4-(trifluoromethyl)thiazol-2-yl)pyridin-3-yl)-4-oxo-1,4-dihydroquinoline-3-carboxylate] has an inhibition at 1 µM of 97%.
With `CCNC(=O)Nc1cc(-c2nc(C(F)(F)F)cs2)c(-c2ccc3c(c2)c(=O)c(C(=O)OCCOP(=O)(O)O)cn3C2CC2)cn1` [Example 18, 2-(phosphonooxy)ethyl 1-cyclopropyl-6-(6-(3-ethylureido)-4-(4-(trifluoromethyl)thiazol-2-yl)pyridin-3-yl)-4-oxo-1,4-dihydroquinoline-3-carboxylate hydrochloride] the inhibition at 1 µM was 104%.
In the case of `CCNC(=O)Nc1cc(-c2nc(C(F)(F)F)cs2)c(-c2ccc3c(c2)c(=O)c(C(=O)OCCOC(=O)C(C)C)cn3C(COC)COC)cn1` [Example 43, 2-(isobutyryloxy)ethyl 1-(1,3-dimethoxypropan-2-yl)-6-(6-(3-ethylureido)-4-(4-(trifluoromethyl)thiazol-2-yl)pyridin-3-yl)-4-oxo-1,4-dihydroquinoline-3-carboxylate], the inhibition at 1 µM is reported as 103%.
`CCNC(=O)Nc1cc(-c2nc(-c3ccccc3)cs2)c(-c2cc3c(=O)c(C(=O)O)cn(CCN(C)C)c3cc2OCCN2CCOCC2)cn1` [Example 48, 1-(2-(dimethylamino)ethyl)-6-(6-(3-ethylureido)-4-(4-phenylthiazol-2-yl)pyridin-3-yl)-7-(2-morpholinoethoxy)-4-oxo-1,4-dihydroquinoline-3-carboxylic acid] showed an inhibition at 1 µM of 99%.
In the case of `CCNC(=O)Nc1cc(-c2nc(C(F)(F)F)cs2)c(-c2cc3c(=O)c(C(=O)O)cn(CC)c3cc2OCCN(C)C)cn1` [Example 47, 7-(2-(dimethylamino)ethoxy)-1-ethyl-6-(6-(3-ethylureido)-4-(4-(trifluoromethyl)thiazol-2-yl)pyridin-3-yl)-4-oxo-1,4-dihydroquinoline-3-carboxylic acid], the inhibition at 1 µM is reported as 110%.
`CCNC(=O)Nc1cc(-c2nc(C(F)(F)F)cs2)c(-c2cc3c(=O)c(C(=O)O)cn([C@H](CO)CC(C)C)c3cc2F)cn1` [Example 52, (S)-6-(6-(3-ethylureido)-4-(4-(trifluoromethyl)thiazol-2-yl)pyridin-3-yl)-7-fluoro-1-(1-hydroxy-4-methylpentan-2-yl)-4-oxo-1,4-dihydroquinoline-3-carboxylic acid] showed an inhibition at 1 µM of 103%.
In the case of `CCNC(=O)Nc1cc(-c2nc(C(F)(F)F)cs2)c(-c2cc3c(=O)c(C(=O)O)cn([C@H](CO)C(C)C)c3cc2OC)cn1` [Example 28, 6-(6-(3-ethylureido)-4-(4-(trifluoromethyl)thiazol-2-yl)pyridin-3-yl)-1-((S)-1-hydroxy-3-methylbutan-2-yl)-7-methoxy-4-oxo-1,4-dihydroquinoline-3-carboxylic acid], the inhibition at 1 µM is reported as 104%.
